One compound from PMC10536304 (2023) can be followed below.

Assay [1] has as its system AU-RNA (poly A-poly U; rArU-RNA) (RNA, polymer) A/U. Nature of the assay: CD titration, Scatchard. The note with it: Na+ (sodium cacodylate, I = 0.05 M); sodium cacodylate pH 7.0, 25 °C; Scatchard n fixed 0.2 per phosphate; per base.
Assay [2] has the same test system. The assay is described as follows: UV thermal melting, 260 nm. The note with it: Na+ (sodium cacodylate, I = 0.05 M); sodium cacodylate pH 7.0; r[compound]/[polynucleotide] = 0.1, polynucleotide 25 µM (phosphate); per base.

For `c1cc2ccc3ccc(CNCCCNCCN(CCNCCCNCc4ccc5ccc6cccc7ccc4c5c67)CCNCCCNCc4ccc5ccc6cccc7ccc4c5c67)c4ccc(c1)c2c34`, the logKs in assay [1] is recorded as 6.5 log(M^-1). In addition, in assay [2], the “∆Tm” value was found to be 3.7 ± 0.5 °C.
